What was measured:
[1] = test system: CD4+ cells isolated from mesenteric lymph nodes; assay: intraperitoneal injection, RT-PCR of CD4+ cells from mesenteric lymph nodes; assay type: in vivo, mice; conditions: five intraperitoneal daily injections (5 μg); RT-PCR after the fifth day; n=30, P=0.0241
[2] = test system: proinflamatory subsets Th1 (IFN-gamma+) and Th17 (IL-17+); assay: flow cytometry of polarized Th1 and Th17 subsets; assay type: cell-based; conditions: 2 day polarization, 3 day incubation with recombinant IGF-1
Procedure: To determine the effect of IGF-1 in the regulatory subset in vitro (cf. FIG. 4) the number of FOXP3 positive cells is determined by flow cytometric analysis. To analyze other subsets, like the proinflammatory Th1 and Th17 subsets, a similar approach is used but the number of interferon-gamma (Th1) and IL-17 (Th17) positive cells is determined. Additionally, to evaluate the number of proliferating cells at a given moment cells are stained using the intracellular marker Ki67, which is expressed only in cycling cells. The combination of a specific lineage marker (e.g., Foxp3, IFN-g, IL-17) with Ki67 allows for the determination at a given moment of the cells belonging to a certain subset and their proliferative status.
An important aspect regarding the immunomodulatory properties of IGF-1 is the specificity of the effect for a certain cellular subset, in this case Tregs. If IGF-1 was a general anabolic factor affecting equally all subsets, it would no affect the balance of pro-inflammatory/anti-inflammatory players. In order to test the hypothesis that IGF-1 induces immune tolerance by specifically affecting the suppressive function, CD4 positive […] cells were polarized for two days into the IFN-gamma secreting Th1 subset and the IL-17 secreting Th17 subset and then incubated with IGF-1.

CD4+CD25+ cells = assay: Annexin V / living dye apoptosis flow cytometry, CD4+CD25+ cells; assay type: cell-based, murine
From the text: The effects of IGF-1 on apoptosis can be measured by flow cytometry. By using a combination of a living dye and Annexin V staining it is possible to determine four different cell populations which correspond to non-apoptotic, necrotic, early and late apoptosis.
Initially, and in order to characterize the in vitro effects of IGF-1 on the different populations of the […] immune system, murine splenic CD4 positive cells were sorted by FACS based on the expression of CD25. This allows for the separation and enrichment of conventional T cells (CD25 negative) and regulatory T cells (CD25 positive). […] To exclude the possibility that the observed expansion was due to the anti-apoptotic properties of IGF-1, the cells in culture were stained with AnnexinV (a marker of apoptosis) and a vital dye, and then analyzed by flow cytometry.

[3] = test system: T effector cell proliferation; assay: in vitro suppression of T effector cell proliferation by IGF-1 treated Tregs; assay type: cell-based; conditions: antigen presenting cells and soluble anti-CD3; Treg:Teff 1:2 to 1:64
[4] = mouse, in vivo
DSS-induced colitis = assay: DSS-induced colitis, systemic IGF-1 delivery; assay type: in vivo, mice
From the text: In this example the inventors examined the ability of IGF-1 to suppress inflammation in a mouse model for IBD (DSS-induced colitis, Wirtz et al, 2007). Mice ingested DSS for 7 days and developed an acute colitis. […] This difference in weight with respect to their respective control group was maintained during the duration of the IGF-1 treatment (FIG. 31).
Administration of DSS in several cycles results in chronic colitis (Wirtz et al., 2007). To also test if the protective effects of IGF-1 lasted beyond the IGF-1 treatment, mice were administered DSS for another cycle at day 37. […] To further confirm that the observed effects were a consequence of colonic inflammation the inventors performed a histochemical analysis of the colon (FIG. 33). DSS-treated mice presented enlargement of the muscle, mucosa and subepithelial layer and foci of infiltrating cell, the main mediators of inflammation. In contrast, DSS-colitis mice receiving IGF-1 during the initial phase of the treatment for a total of 28 days were protected and did no show this prolonged infiltration of leukocytes. Quantification of these histological parameters (FIG. 34) further confirmed the significant long-term protection in IGF-pretreated mice.

STZ induced diabetes = assay: streptozotocin (STZ) induced autoimmune diabetes, systemic rhIGF-1 delivery; assay type: in vivo, mice
From the text: Regarding the functional assay for diabetes a protocol that measures the clearance of a standardized glucose load from the body after intraperitoneal injection was used (intraperitoneal glucose tolerance test, see Heikkinen et al. (2007)).
Beta-cells sense glucose levels and release insulin to maintain physiologic glucose levels within a relatively narrow range. Destruction of beta-cells by the immune system is correlated with the inability to control glucose levels (measured by the glucose tolerance test). Another way to assess whether IGF-1 stimulates proliferation and/or recruitment of regulatory T cells to the damaged tissues is by determining the number of FOXP3 expressing cells per unit area in the affected tissues by immunohistochemistry.
Shortly, single cell suspensions are prepared from the […] and spinal cord. The resulting cells are stained with anti-CD4 antibodies and separated using fluorescent-activated cell sorting. RNA is then extracted and purified and serves as a template for a quantitative RT-PCR reaction with Taqman probes. Finally, the relative amount of each mRNA compared to a house-keeping gene (Hprt) is determined.
An accepted model of experimental autoimmune diabetes in mice is the induction of diabetes by multiple injections of a low dose of streptozotocin (STZ). STZ causes diabetes by direct beta cell cytotoxicity as well as by initiation of T cell-mediated autoimmune attack of β-cells (O'Brian et al., 1996). Using this model the inventors examined if systemic delivery of rhIGF-1 could prevent autoimmune diabetes in the early stages of the disease. […] The inventors therefore addressed the effects of IGF-1 […] and sixty-one days after the treatment was stopped.
First the inventors examined the ability of CsA to suppress IGF-1 activity in vitro. […] Then the inventors tested whether CsA treatment in vivo could also impair IGF-1 protective effect at early stages of the disease. A GTT was performed three weeks from the first STZ injection.

Substance: Insulin-like growth factor-1 [IGF-1]
- expression of Foxp3 in CD4+ cells from mesenteric lymph nodes [1]: increased expression
- cells expressing IFN-gamma (Th1) [2]: no effect
- cells expressing IL-17 (Th17) [2]: no effect
- distribution of Annexin V and living dye stained populations (CD4+CD25+ cells): No difference
- ability of Treg cells to suppress T effector cell proliferation after treatment [3]: retain their ability to suppress T effector cell proliferation
- tumors at necropsy [4]: never found tumors
- histological signs of colitis, infiltration of leukocytes (DSS-induced colitis; IGF-1 for 28 days in initial phase, after re-challenge): protected
- body weight loss (DSS-induced colitis; acute phase, DSS for 7 days): showed protection
- thickness of the subepithelial layer of the colon (DSS-induced colitis; after re-challenge, versus DSS-only mice, P=0.0004): significant reduction
- thickness of the mucosa of the colon (DSS-induced colitis; after re-challenge, versus DSS-only mice, P=0.0007): significant reduction
- thickness of the muscle layer of the colon (DSS-induced colitis; after re-challenge, versus DSS-only mice, P=0.053): significant reduction
- difference in weight with respect to control group (DSS-induced colitis; during the duration of the IGF-1 treatment): maintained
- body weight loss after DSS re-challenge (DSS-induced colitis; second DSS cycle at day 37, no rhIGF-1 delivered in this period): complete protection
- ratio of CD4:Foxp3 positive cells in the spleen (STZ induced diabetes; IGF-1 treatment, P=0.004): decreased
- Foxp3 mRNA in pancreatic CD4 positive cells (STZ induced diabetes; RT-PCR seven weeks after disease induction, beyond treatment): higher expression
- cell mass and architecture of insulin-producing pancreatic islands (insulin staining) (STZ induced diabetes; day ninety-seven after first STZ injection): long-lasting protective effects
- density of T regulatory cells in pancreas (Foxp3 staining) (STZ induced diabetes; day ninety-seven after first STZ injection, P=0.0159): higher density of T regulatory cells
- glucose control in untreated (non-diabetic) mice (STZ induced diabetes; mice without STZ): no effect
- glucose homeostasis (GTT AUC) after end of treatment (STZ induced diabetes; nice and sixty-one days after treatment was stopped, P37d=0.016, P89d=0.036): long-term improved glucose homeostasis
- blood glucose in glucose tolerance test (GTT) (STZ induced diabetes; three weeks from first STZ injection, four weeks after pump implantation): lower glucose levels

— patent US20140286906A1, “USE OF IGF-1 IN THE MODULATION OF TREG CELL ACTIVITY AND THE TREATMENT AND PREVENTION OF AUTOIMMUNE DISORDERS OR DISEASES” (priority 2011, published 2014)
